Reference: EP1145714A1, “DRUGS” (Takeda Chemical Industries, Ltd., priority 1998, dated 2000)

Assays:
[1] = tested on: acute and delayed vomiting induced by cisplatin in ferrets; experiment: Acute and delayed vomiting induced by cisplatin in ferrets, oral dosing once or twice daily; format: in vivo; settings: cisplatin 5 mg/kg i.p.
Description: Male 4 to 6 ferrets (1.2 to 2.2 kg) per one group were used. Cisplatin was intraperitoneally given at 5 mg/5ml/kg. 30 minutes prior to cisplatin administration and 24 and 48 hours after cisplatin administration, predetermined doses of the compound No. 3 were orally given in case of dosing once daily. 30 minutes prior to cisplatin administration and 12, 24, 36, 48 and 60 hours after cisplatin administration, predetermined doses of the compound No. 3 were orally given in case of dosing twice daily. 30 minutes prior to the dosing of the compound No. 3, a small amount of a feed was given to the animals in any of the cases. Similarly, a predetermined volume of 0.5 % methyl cellulose solution was similarly given orally to a control animal group under no fasting. A predetermined dose of ondansetron was orally given to the animals under fasting. To a control animal group of ondansetron, a predetermined volume of physiological saline was orally given to the animals under fasting. The frequency of vomiting was counted in number, up to 72 hours after cisplatin administration.
The compound No. 3 was suspended in 0.5 % methyl cellulose solution, for oral dosing at predetermined doses at a ratio of 1 ml per 1 kg body weight. An injection of ondansetron at 0.2 w/v % concentration was orally given at a predetermined volume. Additionally, 0.5 % methyl cellulose solution was orally given at a ratio of 1 ml per 1 kg body weight, while physiological saline was orally given at a ratio of 0.5 to 1.5 ml per 1 kg body weight. The data relating to the frequency of vomiting, the time period (latency) until first vomiting and the time period from the occurrence of vomiting to the termination thereof were statistically analyzed by the Dunnett test, with reference to the difference from the control group.
The acute vomiting suppression ratio, delayed vomiting suppression ratio and total vomiting suppression ratio were calculated by the following formula. [Frequency of retching or vomiting in control] - [Frequency of retching or vomiting in animals dosed with compound No. 3] / [Frequency of retching or vomiting in control] x 100 (%) [formula]

[2] = tested on: acute vomiting induced by a central emetic agent loperamide in dogs; experiment: Acute vomiting induced by loperamide in dogs; format: in vivo, beagle dogs; settings: loperamide 1 mg/kg subcutaneous; for B: Frequency of vomiting (mean ± SD) / C: Time period until first vomiting (minute; mean ± SD) / D: Duration of vomiting (minute; mean ± SD) / Number of dogs with vomiting/number of tested dogs: 3 hours
Description: 3 male or female beagle dogs (7.7 to 12.7 kg) per one group were used. Loperamide was subcutaneously given at 1 mg/ml/kg. 2.5 hours prior to loperamide administration, a small amount of a feed was given to the animals. 30 minutes thereafter, predetermined doses of the compound No. 3 were orally given. Similarly, 0.5 % methyl cellulose solution was orally given to a control animal group under no fasting. Predetermined doses of naloxone and ondansetron were given intravenously and orally, respectively to the animals under fasting, 30 minutes prior to loperamide administration. The frequency of vomiting was counted, up to 3 hours after loperamide administration. The compound No. 3 was dissolved in 0.5 % methyl cellulose solution, for oral dosing at a ratio of 0.25 to 1 ml per 1 kg body weight. Additionally, naloxone was intravenously given in a solution at a concentration of 0.05 % w/v. An injection of ondansetron at a concentration of 0.2 % w/v was orally given. Still additionally, 0.5 % methyl cellulose solution was orally given at a ratio of 1 ml per 1 kg body weight. The data relating to the frequency of vomiting, the latency and the time period from the occurrence of vomiting to the termination thereof were statistically analyzed by the Dunnett test, with reference to the difference from the control group.
The vomiting suppression ratio was calculated by the following formula. [Frequency of retching or vomiting in control] - [Frequency of retching or vomiting in animals dosed with compound No. 3] / [frequency of retching or vomiting in control] x 100 (%) [formula]

[3] = 0.03 mg/kg × 2 p.o., twice daily
[4] = 0.1 mg/kg × 2 p.o., twice daily
[5] = 0.3 mg/kg × 2 p.o., twice daily
[6] = 1 mg/kg p.o. twice daily, listed as compound No. 3
[7] = 3 mg/kg p.o. twice daily, listed as compound No. 3
[8] = 10 mg/kg p.o. once daily, listed as compound No. 3

## Cc1ccc(-c2c3n(c(=O)c4ncccc24)CC[C@@H](C)CN(Cc2cc(C(F)(F)F)cc(C(F)(F)F)c2)C3=O)cc1 [Cpd. No.3, (9R)-7-[3,5-bis(trifluoromethyl)benzyl]-6,7,8,9,10,11-hexahydro-9-methyl-5-(4-methylphenyl)-6,13-dioxo-13H-[1,4]diazocino[2,1-g][1,7]naphthylidine]
[1]; 0.03 mg/kg p.o. twice daily
  Acute vomiting suppression ratio (0 to 24 hours after cisplatin dosing): 25 % NS
  Delayed vomiting suppression ratio (24 to 72 hours after cisplatin dosing): 31 % NS
  Total vomiting suppression ratio (0 to 72 hours after cisplatin dosing): 30 % NS
[1]; [3]
  Duration (in hour; mean ± SD): 50.8 ± 7.3 h
  Latency (in hour; mean ± SD): 13.4 ± 4.9 h
  On day 0 (0-24 hours): frequency of retching and vomiting (mean ± SD): 24.8 ± 14.8
  On day 0 (0-24 hours): number of ferrets with vomiting/ number of tested ferrets: 3/4
  On days 1-2(24-48 hours): frequency of retching and vomiting (mean ± SD): 245.8 ± 34.3
  On days 1-2(24-48 hours): number of ferrets with vomiting/ number of tested ferrets: 4/4
  Total frequency of retching and vomiting (on days 0-2; 0-72 hours): 270.5 ± 43.7
[1]; 0.1 mg/kg p.o. twice daily
  Acute vomiting suppression ratio (0 to 24 hours after cisplatin dosing): 21 % NS
  Delayed vomiting suppression ratio (24 to 72 hours after cisplatin dosing): 37 % a
  Effect on delayed vomiting induced by cisplatin (in words): significantly suppressed
  Total vomiting suppression ratio (0 to 72 hours after cisplatin dosing): 36 % a
[1]; [4]
  Duration (in hour; mean ± SD): 54.8 ± 6.1 h
  Latency (in hour; mean ± SD): 13.3 ± 6.3 h
  On day 0 (0-24 hours): frequency of retching and vomiting (mean ± SD): 26.0 ± 11.2
  On day 0 (0-24 hours): number of ferrets with vomiting/ number of tested ferrets: 3/4
  On days 1-2(24-48 hours): frequency of retching and vomiting (mean ± SD): 222.0 ± 20.7 a
  On days 1-2(24-48 hours): number of ferrets with vomiting/ number of tested ferrets: 4/4
  Total frequency of retching and vomiting (on days 0-2; 0-72 hours): 248.0 ± 10.7 a
[1]; 0.3 mg/kg p.o. twice daily
  Acute vomiting suppression ratio (0 to 24 hours after cisplatin dosing): 100 % NS
  Delayed vomiting suppression ratio (24 to 72 hours after cisplatin dosing): 41 % b
  Total vomiting suppression ratio (0 to 72 hours after cisplatin dosing): 46 % b
[1]; [5]
  Duration (in hour; mean ± SD): 31.1 ± 1.9 a hour
  Latency (in hour; mean ± SD): 34.5 ± 3.4 b hour
  On day 0 (0-24 hours): frequency of retching and vomiting (mean ± SD): 0
  On day 0 (0-24 hours): number of ferrets with vomiting/ number of tested ferrets: 0/4
  On days 1-2(24-48 hours): frequency of retching and vomiting (mean ± SD): 209.3 ± 14.0 b
  On days 1-2(24-48 hours): number of ferrets with vomiting/ number of tested ferrets: 4/4
  Total frequency of retching and vomiting (on days 0-2; 0-72 hours): 209.3 ± 14.0 b
[1]; 1 mg/kg p.o. twice daily
  Acute vomiting suppression ratio (0 to 24 hours after cisplatin dosing): 0 % NS
  Delayed vomiting suppression ratio (24 to 72 hours after cisplatin dosing): 70 % a
  Total vomiting suppression ratio (0 to 72 hours after cisplatin dosing): 54 % b
[1]; [6]
  Delayed vomiting suppression ratio (24 to 72 hours after cisplatin dosing): 70%
  Total vomiting suppression ratio (0 to 72 hours after cisplatin dosing): 54%
[1]; 1 mg/kg × 2 p.o., twice daily
  Duration (in hour; mean ± SD): 64.8 ± 2.2 h
  Latency (in hour; mean ± SD): 3.4 ± 1.1 h
  On day 0 (0-24 hours): frequency of retching and vomiting (mean ± SD): 71.8 ± 20.6
  On day 0 (0-24 hours): number of ferrets with vomiting/ number of tested ferrets: 4/4
  On days 1-2(24-48 hours): frequency of retching and vomiting (mean ± SD): 108.0 ± 9.6 b
  On days 1-2(24-48 hours): number of ferrets with vomiting/ number of tested ferrets: 4/4
  Total frequency of retching and vomiting (on days 0-2; 0-72 hours): 179.8 ± 21.0 b
[1]; 3 mg/kg p.o. once daily, listed as compound No. 3
  Delayed vomiting suppression ratio (0 to 72 hours after cisplatin dosing): 42%
[1]; 3 mg/kg p.o. twice daily
  Acute vomiting suppression ratio (0 to 24 hours after cisplatin dosing): 82 % NS
  Delayed vomiting suppression ratio (24 to 72 hours after cisplatin dosing): 59 % b
  Total vomiting suppression ratio (0 to 72 hours after cisplatin dosing): 61 % b
[1]; [7]
  Acute vomiting suppression ratio (0 to 24 hours after cisplatin dosing): 82%
  Delayed vomiting suppression ratio (24 to 72 hours after cisplatin dosing): 59%
[1]; 3 mg/kg p.o., once daily
  Acute vomiting suppression ratio (0 to 24 hours after cisplatin dosing): 48 % NS
  Delayed vomiting suppression ratio (0 to 72 hours after cisplatin dosing): 42 % a
  Delayed vomiting suppression ratio (24 to 72 hours after cisplatin dosing): 40 % NS
  Duration (in hour; mean ± SD): 61.2 ± 1.2 h
  Latency (in hour; mean ± SD): 7.8 ± 1.1 h
  On day 0 (0-24 hours): frequency of retching and vomiting (mean ± SD): 56.8 ± 18.4
  On day 0 (0-24 hours): number of ferrets with vomiting/ number of tested ferrets: 4/4
  On days 1-2(24-48 hours): frequency of retching and vomiting (mean ± SD): 209.5±23.6
  On days 1-2(24-48 hours): number of ferrets with vomiting/ number of tested ferrets: 4/4
  Total frequency of retching and actual vomiting (on days 0-2; 0-72 hours): 266.3 ± 20.6 a
[1]; 3 mg/kg × 2 p.o., twice daily
  Duration (in hour; mean ± SD): 40.9 ± 13.9 h
  Latency (in hour; mean ± SD): 25.8 ± 10.7 h
  On day 0 (0-24 hours): frequency of retching and vomiting (mean ± SD): 6.0 ± 4.5
  On day 0 (0-24 hours): number of ferrets with vomiting/ number of tested ferrets: 2/4
  On days 1-2(24-48 hours): frequency of retching and vomiting (mean ± SD): 145.0 ± 50.5 b
  On days 1-2(24-48 hours): number of ferrets with vomiting/ number of tested ferrets: 4/4
  Total frequency of retching and vomiting (on days 0-2; 0-72 hours): 150.8 ± 53.1 b
[1]; [8]
  Acute vomiting suppression ratio (0 to 24 hours after cisplatin dosing): 83%
  Delayed vomiting suppression ratio (24 to 72 hours after cisplatin dosing): 65%
[1]; 10 mg/kg p.o., once daily
  Acute vomiting suppression ratio (0 to 24 hours after cisplatin dosing): 83 % NS
  Delayed vomiting suppression ratio (0 to 72 hours after cisplatin dosing): 70 % b
  Delayed vomiting suppression ratio (24 to 72 hours after cisplatin dosing): 65 % a
  Duration (in hour; mean ± SD): 51.4 ± 7.0 a hour
  Effect on delayed vomiting induced by cisplatin (in words): prominently suppressed
  Latency (in hour; mean ± SD): 16.2 ± 5.6 h
  On day 0 (0-24 hours): frequency of retching and vomiting (mean ± SD): 19.0 ± 11.0 b
  On day 0 (0-24 hours): number of ferrets with vomiting/ number of tested ferrets: 3/4
  On days 1-2(24-48 hours): frequency of retching and vomiting (mean ± SD): 120.5 ± 5.0 a
  On days 1-2(24-48 hours): number of ferrets with vomiting/ number of tested ferrets: 4/4
  Total frequency of retching and actual vomiting (on days 0-2; 0-72 hours): 139.5 ± 8.3 b
[2]; 0.01 mg/kg p.o.
  Vomiting suppression ratio: 20 % NS
  B: Frequency of vomiting (mean ± SD): 8.0 ± 2.5
  C: Time period until first vomiting (minute; mean ± SD): 0.74 ± 0.07 min
  D: Duration of vomiting (minute; mean ± SD): 1.24 ± 0.21 min
  Number of dogs with vomiting/number of tested dogs: 3/3
[2]; 0.03 mg/kg or higher p.o.
  Effect on vomiting (in words): significantly suppressed
[2]; 0.03 mg/kg p.o.
  Vomiting suppression ratio: 80 % a
  B: Frequency of vomiting (mean ± SD): 2.0 ± 0.6 a
  C: Time period until first vomiting (minute; mean ± SD): 1.08 ± 0.11 min
  D: Duration of vomiting (minute; mean ± SD): 0.44 ± 0.22 min
  Number of dogs with vomiting/number of tested dogs: 3/3
[2]; 0.1 mg/kg p.o.
  Vomiting suppression ratio: 73 % a
  B: Frequency of vomiting (mean ± SD): 2.7 ± 2.2 a
  C: Time period until first vomiting (minute; mean ± SD): 1.98 ± 0.55 a minute
  D: Duration of vomiting (minute; mean ± SD): 0.59 ± 0.59 min
  Number of dogs with vomiting/number of tested dogs: 2/3
[2]; 1 mg/kg p.o.
  Vomiting suppression ratio: 67 % a
  B: Frequency of vomiting (mean ± SD): 3.3 ± 1.2 a
  C: Time period until first vomiting (minute; mean ± SD): 1.25 ± 0.35 min
  D: Duration of vomiting (minute; mean ± SD): 0.68 ± 0.34 min
  Number of dogs with vomiting/number of tested dogs: 3/3
[2]; 3 mg/kg p.o.
  Vomiting suppression ratio: 70 % a
  B: Frequency of vomiting (mean ± SD): 3.0 ± 0.6 a
  C: Time period until first vomiting (minute; mean ± SD): 1.63 ± 0.34 min
  D: Duration of vomiting (minute; mean ± SD): 0.38 ± 0.13 a minute
  Number of dogs with vomiting/number of tested dogs: 3/3
[2]; 10 mg/kg p.o.
  Effect on vomiting (in words): completely suppressed
  Vomiting suppression ratio: 100 % b
  B: Frequency of vomiting (mean ± SD): 0 b
  C: Time period until first vomiting (minute; mean ± SD): 3 b minute
  D: Duration of vomiting (minute; mean ± SD): 0 b minute
  Number of dogs with vomiting/number of tested dogs: 0/3
